Results: PubChem BioAssay AID330 (DTP/NCI, 2004)
Values joined by “and” are separate entries in the source; they are usually repeats but may differ in a detail not shown here. Identical values can stand only once. Inconclusive results and toxic doses are left out. How the source made its calls: active means survival T/C of 150% or more; inactive means T/C below 125% in these data.

Test system: P388 leukemia ip, CD2F1 mice, survival T/C
Experiment: NCI In Vivo Anticancer Drug Screen. Data for tumor model P388 Leukemia (intraperitoneal) in CD2F1 (CDF1) mice
Settings: endpoint: median survival time, higher = longer survival
Procedure, shortened: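 Mice carrying the transplanted tumor received test compound or vehicle. Survival was recorded in each group, and the value is the treated-group measurement divided by that of the vehicle-treated control group.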

[1] = dose: 25.0 mg/kg/injection, schedule: Q04DX003 (ip), vehicle: Klucel (hydroxypropylcellulose) (HPC)
[2] = dose: 50.0 mg/kg/injection, schedule: Q04DX003 (ip), vehicle: Klucel (hydroxypropylcellulose) (HPC)
[3] = dose: 50.0 mg/kg/injection, schedule: Q01DX009 (ip), vehicle: Klucel (hydroxypropylcellulose) (HPC)
[4] = dose: 100.0 mg/kg/injection, schedule: Q01DX009 (ip), vehicle: Klucel (hydroxypropylcellulose) (HPC)
[5] = dose: 50.0 mg/kg/injection, schedule: Q01DX005 (ip), vehicle: saline with Tween-80
[6] = dose: 100.0 mg/kg/injection, schedule: Q01DX005 (ip), vehicle: saline with Tween-80
[7] = dose: 200.0 mg/kg/injection, schedule: Q01DX005 (ip), vehicle: saline with Tween-80
[8] = dose: 120.0 mg/kg/injection, schedule: Q01DX005 (ip), vehicle: saline with Tween-80
[9] = dose: 240.0 mg/kg/injection, schedule: Q01DX005 (ip), vehicle: saline with Tween-80
[10] = dose: 50.0 mg/kg/injection, schedule: Q01DX005 (ip), vehicle: Klucel (hydroxypropylcellulose) (HPC)
[11] = dose: 100.0 mg/kg/injection, schedule: Q01DX005 (ip), vehicle: Klucel (hydroxypropylcellulose) (HPC)
[12] = dose: 200.0 mg/kg/injection, schedule: Q01DX005 (ip), vehicle: Klucel (hydroxypropylcellulose) (HPC)
[13] = dose: 60.0 mg/kg/injection, schedule: Q01DX005 (ip), vehicle: saline with Tween-80

Measured: T/C

O=C1NC(c2ccccc2)(c2ccccc2)C(=O)N1CCBr
inactive: dose: 12.5 mg/kg/injection, schedule: Q04DX003 (ip), vehicle: saline 106 % of control | [1] 96 % of control | dose: 25.0 mg/kg/injection, schedule: Q04DX003 (ip), vehicle: saline 100 % of control | [2] 105 % of control | dose: 50.0 mg/kg/injection, schedule: Q04DX003 (ip), vehicle: saline 105 % of control | dose: 100.0 mg/kg/injection, schedule: Q04DX003 (ip), vehicle: Klucel (hydroxypropylcellulose) (HPC) 100 % of control and 107 % of control | dose: 100.0 mg/kg/injection, schedule: Q04DX003 (ip), vehicle: saline 104 % of control | dose: 200.0 mg/kg/injection, schedule: Q04DX003 (ip), vehicle: Klucel (hydroxypropylcellulose) (HPC) 100 % of control and 96 % of control | dose: 400.0 mg/kg/injection, schedule: Q04DX003 (ip), vehicle: Klucel (hydroxypropylcellulose) (HPC) 98 % of control and 99 % of control

COc1ccc(C2=NCC2(Cl)Cl)cc1
inactive: dose: 12.5 mg/kg/injection, schedule: Q01DX009 (ip), vehicle: other 97 % of control | dose: 25.0 mg/kg/injection, schedule: Q01DX009 (ip), vehicle: other 95 % of control | dose: 50.0 mg/kg/injection, schedule: Q01DX009 (ip), vehicle: other 105 % of control | dose: 100.0 mg/kg/injection, schedule: Q01DX009 (ip), vehicle: other 96 % of control | dose: 200.0 mg/kg/injection, schedule: Q01DX009 (ip), vehicle: other 99 % of control

CCOC(=O)/C(C#N)=C/Nc1cc(C(=O)OCC)cc2c(OC)c(OC)ccc12
inactive: dose: 12.5 mg/kg/injection, schedule: Q01DX009 (ip), vehicle: distilled water + Tween-80 97 % of control | dose: 25.0 mg/kg/injection, schedule: Q01DX009 (ip), vehicle: distilled water + Tween-80 93 % of control | dose: 50.0 mg/kg/injection, schedule: Q01DX009 (ip), vehicle: distilled water + Tween-80 106 % of control | dose: 100.0 mg/kg/injection, schedule: Q01DX009 (ip), vehicle: distilled water + Tween-80 106 % of control | dose: 200.0 mg/kg/injection, schedule: Q01DX009 (ip), vehicle: distilled water + Tween-80 110 % of control

CC1CC12OC(=O)N(c1cc(Cl)cc(Cl)c1)C2=O (stereo not drawn)
inactive: dose: 50.0 mg/kg/injection, schedule: Q01DX005 (ip), vehicle: saline + Tween-80 + alcohol 98 % of control | dose: 100.0 mg/kg/injection, schedule: Q01DX005 (ip), vehicle: saline + Tween-80 + alcohol 100 % of control | dose: 200.0 mg/kg/injection, schedule: Q01DX005 (ip), vehicle: saline + Tween-80 + alcohol 101 % of control

CCOC1(NC(=O)N(C)C)C2CCCCC21 (stereo not drawn)
inactive: [3] 98 % of control | [4] 104 % of control | dose: 200.0 mg/kg/injection, schedule: Q01DX009 (ip), vehicle: Klucel (hydroxypropylcellulose) (HPC) 101 % of control

O=[N+]([O-])C(Cc1ccccc1)Cc1ccccc1
inactive: [5] 98 % of control | [6] 103 % of control | [7] 97 % of control

CC(C)(C)C(=O)CC(=O)C(F)(F)C(F)(F)C(F)(F)F.CC(C)(C)C(=O)CC(=O)C(F)(F)C(F)(F)C(F)(F)F.CC(C)(C)C(=O)CC(=O)C(F)(F)C(F)(F)C(F)(F)F.[Pr]
inactive: [8] 116 % of control | [9] 113 % of control

CCC(/C=C/C1OC(=O)C=CC1C)=C\C(C)C/C=C/C(C)=C/C(C)C(=O)C(C)C(O)C(C)C/C(C)=C/C(=O)O (stereo not drawn)
inactive: dose: 12.5 micrograms/kg/injection, schedule: Q01DX005 (ip), vehicle: saline + alcohol 118 % of control | dose: 100.0 micrograms/kg/injection, schedule: Q01DX005 (ip), vehicle: saline + alcohol 92 % of control

NC(=O)CCC(NC(=O)OCC1c2ccccc2-c2ccccc21)C(=O)O (stereo not drawn)
inactive: [10] 104 % of control | [11] 103 % of control | [12] 104 % of control

N=C(N)SCCCN
inactive: dose: 25.0 mg/kg/injection, schedule: Q01DX009 (ip), vehicle: saline 95 % of control | dose: 50.0 mg/kg/injection, schedule: Q01DX009 (ip), vehicle: saline 103 % of control | dose: 100.0 mg/kg/injection, schedule: Q01DX009 (ip), vehicle: saline 112 % of control | dose: 200.0 mg/kg/injection, schedule: Q01DX009 (ip), vehicle: saline 112 % of control

CCOc1ccc2nc3cc(N=Nc4ccc5c(N)c6cc(OCC)ccc6nc5c4)ccc3c(N)c2c1
inactive: dose: 25.0 mg/kg/injection, schedule: Q01DX009 (ip), vehicle: saline with Tween-80 98 % of control | dose: 50.0 mg/kg/injection, schedule: Q01DX009 (ip), vehicle: saline with Tween-80 108 % of control | dose: 100.0 mg/kg/injection, schedule: Q01DX009 (ip), vehicle: saline with Tween-80 120 % of control | dose: 400.0 mg/kg/injection, schedule: Q01DX009 (ip), vehicle: saline with Tween-80 120 % of control

CC1=NN(c2cccc(C(F)(F)F)c2)C(=O)C1
inactive: dose: 25.0 mg/kg/injection, schedule: Q01DX009 (ip), vehicle: Klucel (hydroxypropylcellulose) (HPC) 100 % of control | [3] 106 % of control | [4] 102 % of control

COc1cccc([N+]([O-])=NC#N)c1
inactive: dose: 12.5 mg/kg/injection, schedule: Q04DX003 (ip), vehicle: Klucel (hydroxypropylcellulose) (HPC) 105 % of control | [1] 115 % of control | [2] 107 % of control and 90 % of control

CSC(SC)(C(=O)O)c1cc(C)no1
inactive: [13] 107 % of control | [8] 102 % of control | [9] 102 % of control

Cc1ccc(C(C(=O)O)(c2ccc(C)c(C)c2)C(O)C(=O)O)cc1C (stereo not drawn)
inactive: dose: 100.0 mg/kg/injection, schedule: Q01DX001 (ip), vehicle: Klucel (hydroxypropylcellulose) (HPC) 106 % of control | dose: 200.0 mg/kg/injection, schedule: Q01DX001 (ip), vehicle: Klucel (hydroxypropylcellulose) (HPC) 106 % of control | dose: 400.0 mg/kg/injection, schedule: Q01DX001 (ip), vehicle: Klucel (hydroxypropylcellulose) (HPC) 104 % of control

NS(=O)(=O)c1cc(Br)ccc1Br
inactive: dose: 100.0 mg/kg/injection, schedule: Q04DX003 (ip), vehicle: saline with Tween-80 99 % of control | dose: 200.0 mg/kg/injection, schedule: Q04DX003 (ip), vehicle: saline with Tween-80 117 % of control | dose: 400.0 mg/kg/injection, schedule: Q04DX003 (ip), vehicle: saline with Tween-80 117 % of control

CCN(CC)CCCSCCCNc1cc(OC)cc2cccnc12
inactive: dose: 12.5 mg/kg/injection, schedule: Q01DX005 (ip), vehicle: saline 105 % of control | dose: 25.0 mg/kg/injection, schedule: Q01DX005 (ip), vehicle: saline 100 % of control | dose: 50.0 mg/kg/injection, schedule: Q01DX005 (ip), vehicle: saline 99 % of control and 91 % of control

COc1ccc(C2(Cc3ccccc3C#N)OCCO2)cc1OC
inactive: dose: 100.0 mg/kg/injection, schedule: Q04DX002 (ip), vehicle: Klucel (hydroxypropylcellulose) (HPC) 95 % of control | dose: 200.0 mg/kg/injection, schedule: Q04DX002 (ip), vehicle: Klucel (hydroxypropylcellulose) (HPC) 101 % of control | dose: 400.0 mg/kg/injection, schedule: Q04DX002 (ip), vehicle: Klucel (hydroxypropylcellulose) (HPC) 99 % of control

C=C(Br)CC(N)C(=O)O (stereo not drawn)
inactive: [10] 116 % of control | [11] 106 % of control

CCC(O)c1ccco1 (stereo not drawn)
inactive: dose: 12.5 mg/kg/injection, schedule: Q01DX005 (ip), vehicle: saline with Tween-80 109 % of control | dose: 25.0 mg/kg/injection, schedule: Q01DX005 (ip), vehicle: saline with Tween-80 100 % of control | [5] 111 % of control and 112 % of control

C=C1C(OC(=O)c2ccccc2)C2[C@@H](OC(=O)CC)[C@@H](C)C[C@]2(O)C(=O)[C@@H](C)/C=C/C(C)(C)C(=O)C(O)[C@H]1OC(=O)C(C)C (stereo partly drawn)
inactive: [13] 102 % of control | [8] 91 % of control

COc1ccc(/C(C#N)=C/c2cc(OC)c(OC)c(OC)c2)cc1
inactive: [10] 105 % of control | [11] 97 % of control | [12] 101 % of control

O=c1c2ccccc2oc2nc3cc(Cl)ccc3n12
inactive: [5] 104 % of control | [6] 95 % of control | [7] 98 % of control

CC1(C)OP(=O)(O)C=C1[Se]c1ccccc1
inactive: [10] 100 % of control | [11] 102 % of control | [12] 94 % of control

C/C(CC(C)C)=N\NC(=O)CNC(=O)c1ccccc1
inactive: [13] 100 % of control | [8] 106 % of control | [9] 95 % of control
